In brackets after ≈: the same amount, converted by molar mass. Activity calls are given as the source filed them. The calls are words filed in the database; no cut-off is given here.
Assays:
Staphylococcus aureus [1] = assay: Antibiofilm activity in methicillin resistant Staphylococcus aureus clinical isolate 003 assessed as biofilm clearance rate at 4 times MIC by crystal violet staining based analysis relative to control; assay type: functional
Enterococcus faecalis [2] = assay: Antibiofilm activity in multidrug resistant Enterococcus faecalis ATCC 51299 assessed as destruction of biofilm integrity at 0.5 to 4 times MIC measured after 24 hrs by inverted fluorescence microscopic analysis; assay type: functional, organism-based
Cell membrane [3] = assay: Disruption of membrane permeability in multidrug resistant Enterococcus faecalis ATCC 51299 assessed as increase in ROS accumulation at 2 to 4 times MIC measured after 1 hr
Staphylococcus aureus [4] = assay: Antibacterial activity in methicillin resistant Staphylococcus aureus clinical isolate 003 at sub-MIC measured after 20 passages; assay type: functional, organism-based
Cell membrane [5] = assay: Induction of cell membrane damage in multidrug resistant Enterococcus faecalis ATCC 51299 assessed as increase in red fluorescence at 2 to 4 times MIC by PI staining based analysis; assay type: cell membranes
Cell membrane [6] = assay: Induction of membrane depolarization in multidrug resistant Enterococcus faecalis ATCC 51299 assessed as increase in fluorescence intensity at 2 to 4 times MIC by DiSC3(5) dye based analysis
Cell membrane [7] = assay: Disruption of membrane permeability in multidrug resistant Enterococcus faecalis ATCC 51299 assessed as increase in fluorescence intensity at 4 to 8 times MIC by PI staining based analysis
Cell membrane [8] = assay: Disruption of membrane permeability in methicillin resistant Staphylococcus aureus clinical isolate 003 assessed as increase in fluorescence intensity at 4 to 8 times MIC by PI staining based analysis
Cell membrane [9] = assay: Disruption of membrane permeability in methicillin resistant Staphylococcus aureus clinical isolate 003 assessed as increase in malondialdehyde level
Cell membrane [10] = assay: Induction of membrane damage in multidrug resistant Enterococcus faecalis ATCC 51299 assessed as deformation of bacterial surface at 2 to 4 times MIC by SEM analysis; assay type: cell membranes
Cell membrane [11] = assay: Induction of membrane damage in methicillin resistant Staphylococcus aureus clinical isolate 003 assessed as deformation of bacterial surface at 2 to 4 times MIC by SEM analysis; assay type: cell membranes
Staphylococcus aureus [12] = assay: Antibiofilm activity in methicillin resistant Staphylococcus aureus clinical isolate 003 assessed as inhibition of biofilm formation at 4 times MIC by crystal violet staining based analysis relative to control; assay type: functional
Staphylococcus aureus [13] = assay: Antibacterial activity against methicillin resistant Staphylococcus aureus clinical isolate 011; assay type: functional
Enterococcus faecalis [14] = assay: Antibacterial activity against multidrug resistant Enterococcus faecalis ATCC 51299; assay type: functional
Enterococcus faecalis [15] = assay: Antibacterial activity against Enterococcus faecalis clinical isolate 7; assay type: functional
Staphylococcus aureus [16] = assay: Antibiofilm activity in methicillin resistant Staphylococcus aureus clinical isolate 003 assessed as reduction in biofilm density at 0.5 to 4 times MIC measured after 24 hrs by inverted fluorescence microscopic analysis; assay type: functional, organism-based
Enterococcus faecalis [17] = assay: Antibacterial activity against multidrug resistant Enterococcus faecalis ATCC 51299 in presence of cardiolipin; assay type: functional, organism-based
Cell membrane [18] = assay: Disruption of membrane permeability in methicillin resistant Staphylococcus aureus clinical isolate 003 assessed as nucleic acid leakage at 2 to 4 times MIC
Enterococcus faecalis [19] = assay: Antibiofilm activity in multidrug resistant Enterococcus faecalis ATCC 51299 assessed as reduction in biofilm density at 0.5 to 4 times MIC measured after 24 hrs by inverted fluorescence microscopic analysis; assay type: functional, organism-based
Staphylococcus aureus [20] = assay: Antibacterial activity against Staphylococcus aureus clinical isolate 31; assay type: functional
Enterococcus faecalis [21] = assay: Antibacterial activity against multidrug resistant Enterococcus faecalis ATCC 51299 in presence of phosphatidylglycerol; assay type: functional, organism-based
Staphylococcus aureus [22] = assay: Antibiofilm activity in methicillin resistant Staphylococcus aureus clinical isolate 003 assessed as biofilm clearance at 0.5 to 4 times MIC by crystal violet staining based analysis; assay type: functional, organism-based
Enterococcus faecalis [23] = assay: Antibacterial activity against multidrug resistant Enterococcus faecalis ATCC 51299 in presence of phosphatidylethanolamine; assay type: functional, organism-based
Cell membrane [24] = assay: Induction of membrane damage in multidrug resistant Enterococcus faecalis ATCC 51299 assessed as rupture of bacterial surface at 2 to 4 times MIC by SEM analysis; assay type: cell membranes
Cell membrane [25] = assay: Disruption of membrane permeability in multidrug resistant Enterococcus faecalis ATCC 51299 assessed as protein leakage at 2 to 4 times MIC; assay type: cell membranes
Cell membrane [26] = assay: Disruption of membrane permeability in multidrug resistant Enterococcus faecalis ATCC 51299 assessed as increase in malondialdehyde level
Staphylococcus aureus [27] = assay: Antibacterial activity against methicillin resistant Staphylococcus aureus clinical isolate 003; assay type: functional
Cell membrane [28] = assay: Disruption of membrane permeability in methicillin resistant Staphylococcus aureus clinical isolate 003 assessed as protein leakage at 2 to 4 times MIC
Enterococcus faecalis [29] = assay: Antibacterial activity against Enterococcus faecalis clinical isolate 13; assay type: functional
Enterococcus faecalis [30] = assay: Antibacterial activity in multidrug resistant Enterococcus faecalis ATCC 51299 at sub-MIC measured after 20 passages; assay type: functional, organism-based
Enterococcus faecalis [31] = assay: Antibacterial activity against multidrug resistant Enterococcus faecalis ATCC 51299 at 2 to 4 times MIC measured after 8 to 12 hrs by time-kill assay; assay type: functional, organism-based; conditions: time 8-12 hrs
Enterococcus faecalis [32] = assay: Antibiofilm activity in multidrug resistant Enterococcus faecalis ATCC 51299 assessed as biofilm clearance at 0.5 to 4 times MIC by crystal violet staining based analysis; assay type: functional, organism-based
Cell membrane [33] = assay: Induction of cell membrane damage in methicillin resistant Staphylococcus aureus clinical isolate 003 assessed as increase in green fluorescence at 2 to 4 times MIC by SYTOX Green dye based analysis; assay type: cell membranes
Staphylococcus aureus [34] = assay: Antibacterial activity against methicillin resistant Staphylococcus aureus clinical isolate 003 in presence of cardiolipin; assay type: functional, organism-based
Enterococcus faecalis [35] = assay: Antibacterial activity against multidrug resistant Enterococcus faecalis ATCC 51299 in presence of peptidoglycan; assay type: functional, organism-based
Staphylococcus aureus [36] = assay: Antibacterial activity against methicillin resistant Staphylococcus aureus clinical isolate 003 in presence of phosphatidylglycerol; assay type: functional, organism-based
Enterococcus faecalis [37] = assay: Antibiofilm activity in multidrug resistant Enterococcus faecalis ATCC 51299 assessed as inhibition of biofilm formation at 4 times MIC by crystal violet staining based analysis relative to control; assay type: functional
Cell membrane [38] = assay: Induction of membrane depolarization in methicillin resistant Staphylococcus aureus clinical isolate 003 assessed as increase in fluorescence intensity at 2 to 4 times MIC by DiSC3(5) dye based analysis
Cell membrane [39] = assay: Induction of cell membrane damage in multidrug resistant Enterococcus faecalis ATCC 51299 assessed as increase in green fluorescence at 2 to 4 times MIC by SYTOX Green dye based analysis; assay type: cell membranes
Cell membrane [40] = assay: Induction of cell membrane damage in methicillin resistant Staphylococcus aureus clinical isolate 003 assessed as increase in red fluorescence at 2 to 4 times MIC by PI staining based analysis; assay type: cell membranes
Staphylococcus aureus [41] = assay: Bactericidal activity against methicillin-resistant Staphylococcus aureus clinical isolate 003 assessed as inhibition of bacterial growth by measuring ratio of MBC to MIC; assay type: functional
Staphylococcus aureus [42] = assay: Antibacterial activity against methicillin-resistant Staphylococcus aureus clinical isolate 003 at 2 to 4 times MIC measured after 8 to 12 hrs by time-kill assay; assay type: functional, organism-based; conditions: time 8-12 hrs
Cell membrane [43] = assay: Induction of cell membrane damage in methicillin resistant Staphylococcus aureus clinical isolate 003 assessed as bacterial death at 2 to 4 times MIC by confocal laser scanning microscopy; assay type: cell membranes

CCCCCCc1c(-c2ccc(OCC(=O)CN[C@H](CCCNC(=N)N)C(=O)OC)cc2OCC(=O)CN[C@H](CCCNC(=N)N)C(=O)OC)oc2cc(OC)cc(O)c2c1=O
Activity (Staphylococcus aureus [1]): ~80%
Activity (Enterococcus faecalis [2]): Dose-Dependent Effect
Activity (Cell membrane [3]): Active
Activity (Staphylococcus aureus [4]): Active
Activity (Cell membrane [5]): Active
Activity (Cell membrane [6]): Dose-Dependent Effect
Activity (Cell membrane [7]): Active
Activity (Cell membrane [8]): Active
Activity (Cell membrane [9]): Active
Activity (Cell membrane [10]): Active
Activity (Cell membrane [11]): Active
inhibition (INH) (Staphylococcus aureus [12]): >90%
MIC (Staphylococcus aureus [13]): 1 µg/mL (≈ 1.15 µM)
MIC (Enterococcus faecalis [14]): 32 µg/mL (≈ 36.8 µM)
MIC (Enterococcus faecalis [15]): 64 µg/mL (≈ 73.6 µM)
Activity (Staphylococcus aureus [16]): Dose-Dependent Effect
Activity (Enterococcus faecalis [17]): inactive
Activity (Cell membrane [18]): Active
Activity (Enterococcus faecalis [19]): Dose-Dependent Effect
MIC (Staphylococcus aureus [20]): 1 µg/mL (≈ 1.15 µM)
Activity (Enterococcus faecalis [21]): inactive
Activity (Staphylococcus aureus [22]): Dose-Dependent Effect
Activity (Enterococcus faecalis [23]): inactive
Activity (Cell membrane [24]): Active
Activity (Cell membrane [25]): Active
Activity (Cell membrane [26]): Active
MIC (Staphylococcus aureus [27]): 1 µg/mL (≈ 1.15 µM)
Activity (Cell membrane [28]): Active
MIC (Enterococcus faecalis [29]): 32 µg/mL (≈ 36.8 µM)
Activity (Enterococcus faecalis [30]): Active
Activity (Enterococcus faecalis [31]): Active
Activity (Enterococcus faecalis [32]): Dose-Dependent Effect
Activity (Cell membrane [33]): Active
Activity (Staphylococcus aureus [34]): inactive
Activity (Enterococcus faecalis [35]): Active
Activity (Staphylococcus aureus [36]): inactive
inhibition (INH) (Enterococcus faecalis [37]): >90%
Activity (Cell membrane [38]): Dose-Dependent Effect
Activity (Cell membrane [39]): Active
Activity (Cell membrane [40]): Active
Ratio (Staphylococcus aureus [41]): <4
Activity (Staphylococcus aureus [42]): Active
Activity (Cell membrane [43]): Active

CCCCCCc1c(-c2ccc(OCCCCN(C)C)cc2OCCCCN(C)C)oc2cc(OC)cc(O)c2c1=O
Activity (Staphylococcus aureus [1]): ~80%
Activity (Enterococcus faecalis [2]): Dose-Dependent Effect
Activity (Cell membrane [3]): Active
Activity (Staphylococcus aureus [4]): Active
Activity (Cell membrane [5]): Active
Activity (Cell membrane [6]): Dose-Dependent Effect
Activity (Cell membrane [7]): Active
Activity (Cell membrane [8]): Active
Activity (Cell membrane [9]): Active
Activity (Cell membrane [10]): Active
Activity (Cell membrane [11]): Active
inhibition (INH) (Staphylococcus aureus [12]): >90%
MIC (Staphylococcus aureus [13]): 1 µg/mL (≈ 1.72 µM)
MIC (Enterococcus faecalis [14]): 1 µg/mL (≈ 1.72 µM)
MIC (Enterococcus faecalis [15]): 1 µg/mL (≈ 1.72 µM)
Activity (Staphylococcus aureus [16]): Dose-Dependent Effect
Activity (Enterococcus faecalis [17]): inactive
Activity (Cell membrane [18]): Active
Activity (Enterococcus faecalis [19]): Dose-Dependent Effect
MIC (Staphylococcus aureus [20]): 1 µg/mL (≈ 1.72 µM)
Activity (Enterococcus faecalis [21]): inactive
Activity (Staphylococcus aureus [22]): Dose-Dependent Effect
Activity (Enterococcus faecalis [23]): inactive
Activity (Cell membrane [24]): Active
Activity (Cell membrane [25]): Active
Activity (Cell membrane [26]): Active
MIC (Staphylococcus aureus [27]): 0.5 µg/mL (≈ 0.858 µM)
Activity (Cell membrane [28]): Active
MIC (Enterococcus faecalis [29]): 1 µg/mL (≈ 1.72 µM)
Activity (Enterococcus faecalis [30]): Active
Activity (Enterococcus faecalis [31]): Active
Activity (Enterococcus faecalis [32]): Dose-Dependent Effect
Activity (Cell membrane [33]): Active
Activity (Staphylococcus aureus [34]): inactive
Activity (Enterococcus faecalis [35]): Active
Activity (Staphylococcus aureus [36]): inactive
inhibition (INH) (Enterococcus faecalis [37]): >90%
Activity (Cell membrane [38]): Dose-Dependent Effect
Activity (Cell membrane [39]): Active
Activity (Cell membrane [40]): Active
Ratio (Staphylococcus aureus [41]): <4
Activity (Staphylococcus aureus [42]): Active
Activity (Cell membrane [43]): Active

CCCCCCc1c(-c2ccc(OCCCCNCCCN)cc2OCCCCNCCCN)oc2cc(OC)cc(O)c2c1=O
Activity (Staphylococcus aureus [1]): ~80%
Activity (Enterococcus faecalis [2]): Dose-Dependent Effect
Activity (Cell membrane [3]): Active
Activity (Staphylococcus aureus [4]): Active
Activity (Cell membrane [5]): Active
Activity (Cell membrane [6]): Dose-Dependent Effect
Activity (Cell membrane [7]): Active
Activity (Cell membrane [8]): Active
Activity (Cell membrane [9]): Active
Activity (Cell membrane [10]): Active
Activity (Cell membrane [11]): Active
inhibition (INH) (Staphylococcus aureus [12]): >90%
MIC (Staphylococcus aureus [13]): 0.25 µg/mL (≈ 0.39 µM)
MIC (Enterococcus faecalis [14]): 1 µg/mL (≈ 1.56 µM)
MIC (Enterococcus faecalis [15]): 1 µg/mL (≈ 1.56 µM)
Activity (Staphylococcus aureus [16]): Dose-Dependent Effect
Activity (Enterococcus faecalis [17]): inactive
Activity (Cell membrane [18]): Active
Activity (Enterococcus faecalis [19]): Dose-Dependent Effect
MIC (Staphylococcus aureus [20]): 0.25 µg/mL (≈ 0.39 µM)
Activity (Enterococcus faecalis [21]): inactive
Activity (Staphylococcus aureus [22]): Dose-Dependent Effect
Activity (Enterococcus faecalis [23]): inactive
Activity (Cell membrane [24]): Active
Activity (Cell membrane [25]): Active
Activity (Cell membrane [26]): Active
MIC (Staphylococcus aureus [27]): 0.25 µg/mL (≈ 0.39 µM)
Activity (Cell membrane [28]): Active
MIC (Enterococcus faecalis [29]): 0.5 µg/mL (≈ 0.78 µM)
Activity (Enterococcus faecalis [30]): Active
Activity (Enterococcus faecalis [31]): Active
Activity (Enterococcus faecalis [32]): Dose-Dependent Effect
Activity (Cell membrane [33]): Active
Activity (Staphylococcus aureus [34]): inactive
Activity (Enterococcus faecalis [35]): Active
Activity (Staphylococcus aureus [36]): inactive
inhibition (INH) (Enterococcus faecalis [37]): >90%
Activity (Cell membrane [38]): Dose-Dependent Effect
Activity (Cell membrane [39]): Active
Activity (Cell membrane [40]): Active
Ratio (Staphylococcus aureus [41]): <4
Activity (Staphylococcus aureus [42]): Active
Activity (Cell membrane [43]): Active

Source: ChEMBL document CHEMBL5512659, “Structure optimizing of flavonoids against both MRSA and VRE” (Eur J Med Chem, 2024)
